{"source": "patent US20240325398A1", "about": "“COMBINATION THERAPIES” (Infinity Pharmaceuticals, Inc., priority 2014, published 2024)", "key": {"[1]": {"tested_on": "KARPAS-299", "experiment": "Combination study, ATPLite 72 h, dose matrix (Synergy Score, CI50)", "conditions": "combination with Compound 1"}, "[2]": {"tested_on": "GRANTA-519", "experiment": "Combination study, ATPLite 72 h, dose matrix (Synergy Score, CI50)", "conditions": "combination with Compound 1"}}, "data": [{"molecule": "C[C@@H]1C[C@H]2[C@@H]3CCC4=CC(=O)C=C[C@]4(C)[C@@]3(F)[C@@H](O)C[C@]2(C)[C@@]1(O)C(=O)CO", "note": "[dexamethasone, (8S,9R,10S,11S,13S,14S,16R,17R)-9-Fluoro-11,17-dihydroxy-17-(2-hydroxyacetyl)-10,13,16-trimethyl-6,7,8,9,10,11,12,13,14,15,16,17-dodecahydro-3H-cyclopenta[a]phenanthren-3-one]", "values": [{"measurement": "Synergy Score growth inhibition", "setting": "[1]", "result": "A1 (A1=0.0001 to <1)"}, {"measurement": "Synergy Score inhibition", "setting": "[1]", "result": "A1 (A1=0.0001 to <1)"}, {"measurement": "CI50 growth inhibition", "setting": "[2]", "result": "S (S=0.01 to <0.5)"}, {"measurement": "Synergy Score growth inhibition", "setting": "[2]", "result": "A3 (A3=>3)"}, {"measurement": "Synergy Score inhibition", "setting": "[2]", "result": "A1 (A1=0.0001 to <1)"}]}]}
